# Experimental data as given in patent US6835551B2, “Basophil degranulation test” (Orpegen Pharma GmbH, priority 1999, dated 2004).
# System: basophilic granulocytes
# Conditions: fMLP 10^-7 M, 30 minutes at 37° C., typical values
# Protocol: Peripheral blood (heparinised) of the patient is incubated with various concentrations of the suspected allergen at 37° C. […] The detection is carried out by a three colour immunofluorescence and flow cytometric analysis. The chemotactic peptide fMLP serves as a positive control and a buffer solution (PBS) is used as the negative control.
# The sample to be examined is divided into aliquots of 100 μl in each case. In the case of high leukocyte numbers (WBC of 10-20,000 C/μl) it is possible to use a smaller sample volume e.g. 50 μl. Multiple test mixtures are not necessary.
# ALK-depot SQ (Scherax) mixture of 6 grasses+rye is used at concentrations of 10,000, 1,000, 100 and 10 U/ml. ALK-prick SQ (Scherax) bee venom and ALK-prick SQ (Scherax) wasp venom are used at concentrations of 10, 1, 0.1 and 0.01 μg/ml. Latex allergens, PPL (allergopen) and MDM (allergopen) are used in dilutions of 1:10, 1:100 and 1:1,000. Penicillin Grünenthal is used at concentrations of 100, 10, 1 and 0.1 μg/ml. PBS serves as a negative control and fMLP at a concentration of 10^−7 M (i.e. 1:2,000 PBS) is used as the positive control. A sample from a healthy normal test person is also assayed as a further control.
# 100 μl of each of the allergen dilutions is added to an aliquot of the sample, mixed and incubated for 30 minutes at 37° C. in a water bath. Then the mixtures are placed on ice.
# The following antibody solutions are then added.
# a) 20 μl anti gp55-FITC (prediluted)
# b) 20 μl anti IgE-PE (prediluted)
# c) 10 μl anti CD45-cychrome or 20 μl CD45-PerCP
# After antibody addition it is well mixed (vortex) and incubated for 20 minutes on ice while protected from light.
# 2 ml FACS lysing solution (erythrocyte lysis and leukocyte fixation) is then added, it is mixed (vortex) and incubated for 10 minutes at room temperature while protected from light. Subsequently it is centrifuged for 5 min at 1300 rpm or 300 g and decanted.
# The cells are washed by adding 3 ml wash solution (PBS), centrifuging (5 min at 1300 rpm or 300 g) and decanting.
# The sample is measured by flow cytometry for example on an FACS scan instrument. The stability of the measured sample is presumably ≧2 hours on flaked ice in the dark.
# In the SSC/IgE dot plot, a region is set around the cells with low and high side scattered light and strong IgE expression. […] The markers are set such that the evaluation region covers the region of the gp55 positive basophils (the PBS test mixture serves as a negative control). The mean value FL1 is observed in all (also gp55-negative) cell populations. If possible, at least 1000 cells of the subclass of interest (in this case basophils) are recorded. […] It is therefore possible to view the percentage which is adequate for evaluating the test result.
substance,measurement,setting,value
fMLP,% basos,heparinised whole blood,2.35%
same,mean gp55,mean FL1 of all basophils,369
same,mean CD45,mean fluorescence (CD45 expression density) of basophils,349
same,mean IgE,mean fluorescence (IgE density) of basophils,981
same,% gp55,percentage of gp55-positive basophilic granulocytes,30.6%
